# US20180045715A1, “STRUCTURE AND FUNCTION OF THE SALICYCLIC ACID BINDING SITES ON HUMAN HMGB1 AND METHODS OF USE THEREOF FOR THE RATIONAL DESIGN OF BOTH SALICYCLIC ACID DERIVATIVES AND OTHER AGENTS THAT ALTER ANIMAL AND PLANT HMGBS ACTIVITIES” (Boyce Thompson Institute for Plant Research, Inc., priority 2015, published 2018)
# Substitutions are numbered along the chain they refer to. Read-outs that look alike come from different tables or passages of the source.
# Columns and labels:
# Type in all cases: cell-based
# HMGB1^RE [1] = test: Chemotaxis assay (Boyden chambers): HMGB1^RE-elicited migration of mouse 3T3 fibroblasts; conditions: chemo-attractant and cytokine-inducing activities vs literature COX-2 inhibition
# Procedure: (§1) Cell migration was assayed using Boyden chambers (Venereau et al., 2012). The downside of PVP-free polycarbonate filters (8 μm pores; Millipore) was coated with 50 μg/ml fibronectin (Sigma). Serum-free DMEM (negative control), DMEM containing 0.1 nM fMLP (positive control; Sigma), or DMEM containing 1 nM HMGB1^RE or HMGB1^SS were placed in the lower chamber, together with different concentrations of SA (Sigma). The mouse 3T3 fibroblast cells were cultured in DMEM media supplemented with 10% CS until 90% confluence, washed twice with PBS to eliminate any floating cells, and harvested with trypsin. 50,000 cells in 200 μL were added to the upper chamber, and cells were left to migrate for 3 h at 37° C. Non-migrating cells were removed with a cotton swab, and migrated cells were fixed with ethanol and stained with Giemsa.
# (§2) HMGB1^RE acts as a chemo-attractant that mediates migration of several cell types, including monocytes, fibroblasts, mesoangioblasts, smooth muscle cells, and colon cancer cells (Venereau et al., 2012). To determine whether SA alters HMGB 1's chemo-attractant activity, a chemotaxis assay was performed with mouse 3T3 fibroblasts.
# HMGB1^RE [2] = molecular target: T1, HMGB1^RE (Homo sapiens, UniProt P09429); test: as above
# T1 construct: (i) full length: residues 2-215; 6x His (cleaved yes); made in house; host or cells: Escherichia coli BL21
# T1 sequence (P09429 2-215): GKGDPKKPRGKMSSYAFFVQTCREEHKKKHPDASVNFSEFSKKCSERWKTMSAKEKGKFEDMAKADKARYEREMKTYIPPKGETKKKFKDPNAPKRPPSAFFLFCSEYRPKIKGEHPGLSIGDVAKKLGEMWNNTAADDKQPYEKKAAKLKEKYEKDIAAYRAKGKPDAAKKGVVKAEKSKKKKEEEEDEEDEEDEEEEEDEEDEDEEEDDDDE
# Procedure: as §1, §2
# [3] = molecular target: T2, mutant (R24A/K28A) HMGB1^RE (Homo sapiens, UniProt P09429, K28A/R24A); test: Chemotaxis assay with mutant R24A/K28A HMGB1^RE; conditions: NIH/3T3 fibroblasts
# T2 construct: (i) full length: residues 2-215; made in house
# T2 sequence (P09429 2-215 R24A/K28A): T1 sequence (P09429 2-215) with R23A, K27A
# Procedure: as §1
# An alternative explanation is that SA, at low concentrations, affects another factor in vivo, which results indirectly in suppression of HMGB1^RE-induced chemotaxis. […] Therefore, these residues were mutated to Ala to form the double mutant Arg24Ala/Lys28Ala (R24A/K28A).
structure (smiles),measurement,setting,value
"O=C(O)c1ccccc1O [SA, salicylic acid]","concentration inhibiting HMGB1 bioactivities, fold below that required to inhibit COX-2's enzyme activity",HMGB1^RE [1],10-50 fold
same,IC50,"HMGB1^RE [2]; mouse 3T3 fibroblasts, 1 nM HMGB1^RE, read-out: IC50, inhibition of HMGB1^RE-elicited migration of fibroblasts",3 to 4 µM
same,IC50,"HMGB1^RE [2]; read-out: IC50, inhibition of HMGB1^RE-induced chemotaxis",3.26 to 4.34 µM
same,inhibition of R24A/K28A HMGB1^RE's chemo-attractant activity,[3],not inhibited
